{
  "source": "patent US4211769A",
  "about": "“Preparations for vaginal administration” (Takeda Chemical Industries, Ltd., priority 1977, dated 1980)",
  "key": {"rat": {"test_system": "rat", "assay_type": "in vivo", "excerpt": "In terms of ovulation-stimulating action, a 30 times increase of stimulating effect was obtained over the control (without carboxylic acid) in the case of natural type LH-RH (Table 1). […] It is clear that a given pharmacological effect can be obtained at a dose equivalent to 5.2 times the intravenous dose or 3.1 times the subcutaneous dose. […] In view of these facts, it is obvious that the vaginal administration according to this invention is a very advantageous method of medication.\nThus, to achieve a given ovulation-stimulatingactivity, the vaginal preparation according to this invention requires only 2.6 times as much of peptide as by the intravenous route and 1.7 times as much of peptide as by the subcutaneous route. The unusual effectiveness of the vaginal preparation of this invention will also be apparent in view of the fact that oral administration requires 1900 times as much of peptide as by the intravenous route, rectal administration requires 82 times the dosage by the intravenous route, and vaginal administration with the oleaginous basis (Witepsol® S55) requires 26 times as much of peptide as by the intravenous route."}, "matured female SD rats": {"test_system": "matured female SD rats", "assay_type": "in vivo, rat", "details": "vaginal, aqueous solution with 10% citric acid at pH 2.0", "description": "A synthetic peptide (monoacetate.pentahydrate; (Pyr)Glu-His-Trp-Ser-Tyr-D-Leu-Leu-Arg-Pro-NH-C2 H5) was dissolved in aliquots of Clark-Lubs buffer [J. Bact. 2, (1), 109, 191(1971) [or Sorensen's buffer [Ergeb.Physiol. 12, 3931 (1912)] at pH 2-7 and each solution was supported on a piece (substantially-predetermined volume) of cotton and administered into the vaginas of rats to investigate the pH dependence of the ovulation-stimulating activity of the peptide.\nUsing matured female SD rats (120-150 days, body weights from 250 to 350 g), each preparation was vaginally administered during the diestrus and the animal was autopsied next morning to check for the occurrence of ovulation based on the presence or absence of ova in the ampulla.\nThe same peptide as that used in Example 12 was dissolved in 0.238 mol/liter aqueous solutions of various water-soluble aliphatic carboxylic acids which had been previously adjusted to pH 3.5 with small amounts of 10 N--NaOH. […]\nThe same peptide as used in Example 12 was employed as the active component. Citric acid was added to aliquots of phthalate buffer (pH 3.5) at the levels of addition of 1, 2, 5, 7 and 10% (W/V) and the pH of each solution was readjusted to pH 3.5 with a small amount of concentrated NaOH. […]"}},
  "note": "Like-named read-outs stand apart in the source and are kept apart here.",
  "data": [
    {"smiles": "CCNC(=O)[C@@H]1CCCN1C(=O)[C@H](CCCNC(=N)N)NC(=O)[C@H](CC(C)C)NC(=O)[C@@H](CC(C)C)NC(=O)[C@H](Cc1ccc(O)cc1)NC(=O)[C@H](CO)NC(=O)[C@H](Cc1c[nH]c2ccccc12)NC(=O)[C@H](Cc1c[nH]cn1)NC(=O)[C@@H]1CCC(=O)N1", "note": "[peptide of Example 12, (Pyr)Glu-His-Trp-Ser-Tyr-D-Leu-Leu-Arg-Pro-NH-C2 H5]", "values": [
      {"measurement": "ED50, ovulation-stimulating activity", "setting": "rat; intravenous route", "value": "3.8 ng/100 g (body weight of rat)"},
      {"measurement": "ED50, ovulation-stimulating activity", "setting": "rat; subcutaneous route", "value": "5.8 ng/100 g (body weight of rat)"},
      {"measurement": "ED50, ovulation-stimulating activity", "setting": "matured female SD rats", "value": "9.9 ng/100 g (body weight of rat)"}
    ]}
  ]
}
